What was measured:
human recombinant HDAC1 = biological target: T1, human recombinant HDAC1 (Homo sapiens, UniProt Q13547); experiment: In vitro HDAC enzyme activity inhibition assay, HDAC1 (HDAC Fluorimetric Drug Discovery Kit); format: biochemical; details: human recombinant HDAC1, Fluor de Lys-SIRT1 substrate 10 μM, 30° C. for 60 minutes
T1 construct: purchased Enzo Life Sciences, Inc. BML-SE456
Experimental: (§1) In order to confirm the selectivity of the compounds represented by Chemical Formula I of the present invention to HDAC6 through HDAC1 and HDAC6 enzyme activity inhibition experiments, a comparison experiment was performed using the material that has already been developed as a control group.
(§2) HDAC enzyme activity was measured using the HDAC Fluorimetric Drug Discovery Kit (Enzo Life Sciences, Inc., BML-AK511, 516). For the HDAC1 enzyme activity test, human recombinant HDAC1 (BML-SE456) was used as an enzyme source and Fluor de Lys®-SIRT1 (BNL-KI177) was used as a substrate. After dispensing 5-fold diluted compounds into a 96-well plate, 0.3 μg of enzyme and 10 μM substrate were added to each well of the plate and allowed to react at 30° C. for 60 minutes. Next, Fluor de Lys® Developer II (BML-KI176) was added and reacted for 30 minutes to complete the reaction, and then the fluorescence values (Ex 360, Em 460) were measured using a multi-plate reader (Flexstation 3, Molecular Device). The HDAC6 enzymes were tested using human recombinant HDAC6 (382180) from Calbiochem Inc., according to the same protocol as the HDAC1 enzyme activity test method. With respect to the final result values, respective IC50 values were calculated using GraphPad Prism 4.0 program, and results thereof were summarized in Table 5 below.

human recombinant HDAC6 = biological target: T2, human recombinant HDAC6 (Homo sapiens, UniProt Q9UBN7); experiment: In vitro HDAC enzyme activity inhibition assay, HDAC6 (HDAC Fluorimetric Drug Discovery Kit); format: biochemical; details: for HDAC6 Selectivity (fold): HDAC6 versus HDAC1; for IC50: human recombinant HDAC6, same protocol as the HDAC1 test
T2 construct: purchased Calbiochem Inc. 382180
T2 sequence (Q9UBN7 1-1215): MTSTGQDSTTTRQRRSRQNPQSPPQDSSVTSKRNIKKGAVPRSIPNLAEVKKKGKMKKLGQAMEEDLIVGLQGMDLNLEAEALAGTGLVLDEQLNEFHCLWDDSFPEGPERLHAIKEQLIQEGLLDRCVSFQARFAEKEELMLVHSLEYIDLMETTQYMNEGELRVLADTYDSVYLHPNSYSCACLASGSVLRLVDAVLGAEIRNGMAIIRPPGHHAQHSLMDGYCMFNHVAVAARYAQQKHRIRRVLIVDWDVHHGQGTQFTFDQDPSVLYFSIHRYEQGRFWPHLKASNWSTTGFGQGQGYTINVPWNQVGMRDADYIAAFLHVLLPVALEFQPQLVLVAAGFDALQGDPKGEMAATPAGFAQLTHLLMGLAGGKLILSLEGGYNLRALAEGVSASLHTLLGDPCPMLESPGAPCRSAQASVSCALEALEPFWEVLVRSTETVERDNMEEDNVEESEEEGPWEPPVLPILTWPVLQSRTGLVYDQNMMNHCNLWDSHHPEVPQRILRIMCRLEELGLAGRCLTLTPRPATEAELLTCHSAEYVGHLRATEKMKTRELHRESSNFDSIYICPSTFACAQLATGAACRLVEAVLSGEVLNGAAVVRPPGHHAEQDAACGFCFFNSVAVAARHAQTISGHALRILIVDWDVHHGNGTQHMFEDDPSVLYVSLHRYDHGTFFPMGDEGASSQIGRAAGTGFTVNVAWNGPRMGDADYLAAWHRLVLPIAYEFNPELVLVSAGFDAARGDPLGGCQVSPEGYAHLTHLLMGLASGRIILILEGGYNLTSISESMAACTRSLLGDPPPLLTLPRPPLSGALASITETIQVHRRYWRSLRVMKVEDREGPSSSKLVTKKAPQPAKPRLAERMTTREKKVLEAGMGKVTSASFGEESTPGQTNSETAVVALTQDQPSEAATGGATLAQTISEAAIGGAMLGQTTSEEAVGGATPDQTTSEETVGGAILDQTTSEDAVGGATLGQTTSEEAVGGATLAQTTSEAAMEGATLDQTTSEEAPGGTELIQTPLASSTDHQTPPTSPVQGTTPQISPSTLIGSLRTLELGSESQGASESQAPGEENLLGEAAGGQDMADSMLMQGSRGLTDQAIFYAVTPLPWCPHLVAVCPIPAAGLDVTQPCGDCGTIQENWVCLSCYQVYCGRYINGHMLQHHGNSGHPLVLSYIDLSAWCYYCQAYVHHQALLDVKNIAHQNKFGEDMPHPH
Experimental: as §1, §2

T1 sequence (Q13547 whole entry): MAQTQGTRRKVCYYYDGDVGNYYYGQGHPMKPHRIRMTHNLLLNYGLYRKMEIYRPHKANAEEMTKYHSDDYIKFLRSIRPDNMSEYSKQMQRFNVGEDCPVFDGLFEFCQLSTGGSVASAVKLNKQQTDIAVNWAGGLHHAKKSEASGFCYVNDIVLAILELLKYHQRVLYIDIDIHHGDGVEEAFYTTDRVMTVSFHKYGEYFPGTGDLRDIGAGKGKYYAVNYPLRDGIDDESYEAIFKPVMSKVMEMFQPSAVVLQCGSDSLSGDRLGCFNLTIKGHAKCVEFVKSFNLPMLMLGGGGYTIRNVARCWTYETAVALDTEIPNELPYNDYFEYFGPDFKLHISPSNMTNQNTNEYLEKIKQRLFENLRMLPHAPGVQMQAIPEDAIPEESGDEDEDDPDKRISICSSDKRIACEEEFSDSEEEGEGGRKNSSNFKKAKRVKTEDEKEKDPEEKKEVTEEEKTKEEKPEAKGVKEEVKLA

Row | SMILES | IC50 (human recombinant HDAC1) | HDAC6 Selectivity (fold) (human recombinant HDAC6) | IC50 (human recombinant HDAC6)
1 | O=C(CO)N1CCC(C(=O)N(Cc2cn3ccc(-c4nnc(C(F)F)o4)cc3n2)c2ccccc2)CC1 [Compound 4124, N-((7-(5-(difluoromethyl)-1,3,4-oxadiazol-2-yl)imidazo[1,2-a]pyridin-2-yl)methyl)-1-(2-hydroxyacetyl)-N-phenylpiperidine-4-carboxamide] | > 50000 nM | 147 fold | 341 nM
2 | O=C(C1CN(c2ncccn2)C1)N(Cc1cn2ccc(-c3nnc(C(F)F)o3)cc2n1)c1ccccc1 [Compound 4177, N-((7-(5-(difluoromethyl)-1,3,4-oxadiazol-2-yl)imidazo[1,2-a]pyridin-2-yl)methyl)-N-phenyl-1-(pyrimidin-2-yl) azetidine-3-carboxamide] | > 50000 nM | 205 fold | 244 nM
3 | O=C(C1COC1)N1CCN(C(=O)N(Cc2cn3ccc(-c4nnc(C(F)F)o4)cc3n2)c2ccccc2)CC1 [Compound 4102, N-((7-(5-(difluoromethyl)-1,3,4-oxadiazol-2-yl)imidazo[1,2-a]pyridin-2-yl)methyl)-4-(oxetan-3-carbonyl)-N-phenylpiperazine-1-carboxamide] | > 50000 nM | 164 fold | 305 nM
4 | CCN1CCC(C(=O)N(Cc2cn3ccc(-c4nnc(C(F)F)o4)cc3n2)c2ccccc2)CC1 [Compound 4115, N-((7-(5-(difluoromethyl)-1,3,4-oxadiazol-2-yl)imidazo[1,2-a]pyridin-2-yl)methyl)-1-ethyl-N-phenylpiperidine-4-carboxamide] | > 50000 nM | 141 fold | 354 nM
5 | CC(CO)N1CCC(C(=O)N(Cc2cn3ccc(-c4nnc(C(F)F)o4)cc3n2)c2ccccc2)CC1 (stereo not drawn) [Compound 4117, N-((7-(5-(difluoromethyl)-1,3,4-oxadiazol-2-yl)imidazo[1,2-a]pyridin-2-yl)methyl)-1-(1-hydroxypropan-2-yl)-N-phenylpiperidine-4-carboxamide] | > 50000 nM | 133 fold | 377 nM
6 | CN(C)C(=O)N1CCC(C(=O)N(Cc2cn3ccc(-c4nnc(C(F)F)o4)cc3n2)c2cccc(F)c2)CC1 [Compound 4155, N4-((7-(5-(difluoromethyl)-1,3,4-oxadiazol-2-yl)imidazo[1,2-a]pyridin-2-yl)methyl)-N4-(3-fluorophenyl)-N1,N1-dimethylpiperidine-1,4-dicarboxamide] | > 50000 nM | 142 fold | 352 nM
7 | O=C(N1CCN(C2COC2)CC1)N(Cc1cn2ccc(-c3nnc(C(F)F)o3)cc2n1)c1cccc(F)c1 [Compound 4088, N-((7-(5-(difluoromethyl)-1,3,4-oxadiazol-2-yl)imidazo[1,2-a]pyridin-2-yl)methyl)-N-(3-fluorophenyl)-4-(oxetan-3-yl)piperazine-1-carboxamide] | > 50000 nM | 156 fold | 320 nM

Further lines, results first:

Row | IC50 (human recombinant HDAC1) | HDAC6 Selectivity (fold) (human recombinant HDAC6) | IC50 (human recombinant HDAC6) | SMILES
8 | > 50000 nM | 128 fold | 391 nM | CS(=O)(=O)c1ccc(NCc2cn3ccc(-c4nnc(C(F)F)o4)cc3n2)cc1 [Compound 3674, N-((7-(5-(difluoromethyl)-1,3,4-oxadiazol-2-yl)imidazo[1,2-a]pyridin-2-yl)methyl)-4-(methylsulfonyl)aniline]
9 | > 50000 nM | 174 fold | 240 nM | Fc1ccc(OCc2cn3ccc(-c4nnc(C(F)F)o4)cc3n2)cc1F [Compound 3723, 2-(difluoromethyl)-5-(2-((3,4-difluorophenoxy)methyl)imidazo[1,2-a]pyridin-7-yl)-1,3,4-oxadiazole]
10 | > 50000 nM | 94 fold | 530 nM | Cc1ccc(Cc2cn3ccc(-c4nnc(C(F)F)o4)cc3n2)cc1 [Compound 3589, 2-(difluoromethyl)-5-(2-(4-methylbenzyl)imidazo[1,2-a]pyridin-7-yl)-1,3,4-oxadiazole]
11 | > 50000 nM | 354 fold | 141 nM | Fc1ccc(NCc2cn3ccc(-c4nnc(C(F)F)o4)cc3n2)cn1 [Compound 3676, N-((7-(5-(difluoromethyl)-1,3,4-oxadiazol-2-yl)imidazo[1,2-a]pyridin-2-yl)methyl)-6-fluoropyridin-3-amine]
12 | > 50000 nM | 274 fold | 182 nM | O=C(C1CN(C(=O)C(F)(F)F)C1)N(Cc1cn2ccc(-c3nnc(C(F)F)o3)cc2n1)c1cccc(F)c1 [Compound 4202, N-((7-(5-(difluoromethyl)-1,3,4-oxadiazol-2-yl)imidazo[1,2-a]pyridin-2-yl)methyl)-N-(3-fluorophenyl)-1-(2,2,2-trifluoroacetyl) azetidine-3-carboxamide]
13 | > 50000 nM | 150 fold | 334 nM | Fc1ccc(Cc2cn3ccc(-c4nnc(C(F)F)o4)cc3n2)cc1F [Compound 3587, 2-(2-(3,4-difluorobenzyl)imidazo[1,2-a]pyridin-7-yl)-5-(difluoromethyl)-1,3,4-oxadiazole]
14 | > 50000 nM | 348 fold | 144 nM | CN(C)C(=O)N1CC(C(=O)N(Cc2cn3ccc(-c4nnc(C(F)F)o4)cc3n2)c2cccc(F)c2)C1 [Compound 4205, N3-((7-(5-(difluoromethyl)-1,3,4-oxadiazol-2-yl)imidazo[1,2-a]pyridin-2-yl)methyl)-N3-(3-fluorophenyl)-N1,N1-dimethylazetidine-1,3-dicarboxamide]
15 | > 50000 nM | 282 fold | 177 nM | CN(Cc1cn2ccc(-c3nnc(C(F)F)o3)cc2n1)c1ccccc1 [Compound 3725, N-((7-(5-(difluoromethyl)-1,3,4-oxadiazol-2-yl)imidazo[1,2-a]pyridin-2-yl)methyl)-N-methylaniline]
16 | > 50000 nM | 361 fold | 138 nM | O=C(C1CN(c2ccccn2)C1)N(Cc1cn2ccc(-c3nnc(C(F)F)o3)cc2n1)c1cccc(F)c1 [Compound 4206, N-((7-(5-(difluoromethyl)-1,3,4-oxadiazol-2-yl)imidazo[1,2-a]pyridin-2-yl)methyl)-N-(3-fluorophenyl)-1-(pyridin-2-yl) azetidine-3-carboxamide]
17 | > 50000 nM | 361 fold | 139 nM | O=C(C1CN(C2COC2)C1)N(Cc1cn2ccc(-c3nnc(C(F)F)o3)cc2n1)c1cccc(F)c1 [Compound 4193, N-((7-(5-(difluoromethyl)-1,3,4-oxadiazol-2-yl)imidazo[1,2-a]pyridin-2-yl)methyl)-N-(3-fluorophenyl)-1-(oxetan-3-yl) azetidine-3-carboxamide]
18 | > 50000 nM | 464 fold | 108 nM | Fc1ccc(NCc2cn3ccc(-c4nnc(C(F)F)o4)cc3n2)cc1Cl [Compound 3672, 3-chloro-N-((7-(5-(difluoromethyl)-1,3,4-oxadiazol-2-yl)imidazo[1,2-a]pyridin-2-yl)methyl)-4-fluoroaniline]
